We go through four compounds from patent publication US20120164670A1, “METHODS AND KITS FOR MEASURING ENZYME ACTIVITY” (President and Fellows of Harvard College, priority 2009, published 2012).

Read-outs that look alike come from different tables or passages of the source.

Common to all, as to format: biochemical
Assay [1] deals with T1, SIRT1 (Homo sapiens, UniProt Q96EB6).
T1 sequence (Q96EB6 1-747): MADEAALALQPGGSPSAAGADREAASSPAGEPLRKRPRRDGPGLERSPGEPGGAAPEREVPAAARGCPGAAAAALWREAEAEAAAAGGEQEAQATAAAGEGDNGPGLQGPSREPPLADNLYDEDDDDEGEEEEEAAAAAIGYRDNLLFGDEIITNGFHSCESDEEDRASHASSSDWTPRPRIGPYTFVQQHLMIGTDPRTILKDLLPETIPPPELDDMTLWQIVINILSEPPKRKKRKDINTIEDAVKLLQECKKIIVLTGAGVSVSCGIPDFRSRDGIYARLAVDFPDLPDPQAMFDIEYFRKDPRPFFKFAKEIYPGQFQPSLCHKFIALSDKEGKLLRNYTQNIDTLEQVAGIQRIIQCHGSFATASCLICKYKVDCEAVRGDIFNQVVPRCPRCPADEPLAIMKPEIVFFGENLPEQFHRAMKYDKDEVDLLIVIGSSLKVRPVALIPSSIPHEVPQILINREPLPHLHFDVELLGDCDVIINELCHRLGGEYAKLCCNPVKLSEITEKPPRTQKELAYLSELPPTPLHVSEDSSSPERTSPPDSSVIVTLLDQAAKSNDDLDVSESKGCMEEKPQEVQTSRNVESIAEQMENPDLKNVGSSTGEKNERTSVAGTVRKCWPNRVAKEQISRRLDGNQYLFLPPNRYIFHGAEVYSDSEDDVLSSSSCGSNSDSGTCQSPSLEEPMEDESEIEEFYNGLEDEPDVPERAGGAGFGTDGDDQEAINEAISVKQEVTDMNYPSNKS
As to the kind of experiment: PNC1-OPT fluorescent Nicotinamide Assay of SIRT1 deacetylation. As to the method:
A SIRT1 enzymatic deacetylation reaction was carried out in the presence of an acetylated substrate and β-NAD. […] Subsequently, PNC1 was added to the mixture to convert all of the nicotinamide generated during the reaction into ammonia. Additionally, PNC1 may be added directly to the SIRT1 reaction (and the reactions may proceed simultaneously). […] In brief, the products of the PNC1 reaction were reacted with o-phthaladehyde in the presence of DTT. The reaction was allowed to proceed for 1 hour, and subsequently the amount of fluorescent adducts obtained were measured fluorometrically with excitation at ˜413 nm and emission at ˜476 nm. […] A blank reaction was also performed in the absence of NAD.
Prepare a master-mix for the total number of reactions you wish to perform. For each individual reaction, mix the following in the order presented (the total volume for each reaction is 100 uL):
Incubate at 37° C. for the appropriate amount of time (typically 1 hour) Reaction 2: Nicotinamide→Ammonia→Fluorescent adducts Note: When adding the OPT Developer it is advisable to work in a dark or dimly lit setting. Dim the lights prior to adding the developer to each reaction. a) Add 100 uL of the OPT Developer Mix to each reaction. b) Mix each sample by vortexing briefly for 5 s at the highest setting. c) Immediately cover all of the samples with Aluminum foil, and incubate the reactions on an orbital shaker for 1 hour at room temperature. Once covered, ambient lighting may be restored. 3) If necessary samples may be transferred to a 96-well plate for reading (do this under dim light). Read the fluorescence on a fluorometer with filters set to excitation (˜420 nm+/−20, and emission ˜450 nm (+/−20). A 0.1 s or 1 s read is generally recommended.
OPT Developer Reagent: A solution of 10 mM OPT and 10 mM DTT in 100% EtOH. Store at −20° C. in the dark until use. Cover with Aluminum foil in order to minimize exposure to light.

Assay [2] concerns the target T1, SIRT1. Briefly: PNC1-GDH (non-fluorometric) Nicotinamide Assay of SIRT1 deacetylation. The settings on record: FIG. 4; Nicotinamide Assay depicted in FIG. 1 (PNC1-GDH); read-out: NAD Km value for SIRT1. On the procedure:
A SIRT1 enzymatic deacetylation reaction was carried out in the presence of an acetylated substrate and β-NAD. […] Subsequently, a-Ketoglutarate and NADPH were added to the reaction mix. The absorbance was read at 340 nm using an appropriate spectrophotometer (Ro). PNC1 and GDH were then added in excess to induce the coupled conversion of NADPH to NADP (PNC1 first converts NAM to NH3, and subsequently GDH uses the ammonia to oxidize NADPH to NADP). A second reading at 340 nm was then obtained (R1). The difference in absorbance readings, R1-Ro is proportional to the amount of NAM produced in the initial deacetylation reaction, thereby allowing for the measurement of activity. A blank reaction was carried out in the absence of NAD (or absence of Enzyme), as above, and subtracted from each sample in order to normalize the data.
Ex. Substrate Concentration (BIOMOL)=20 uM; NAD Concentration=1 mM
1) Mix the following (final volume 100 uL): • a) 10 uL 10×BIOMOL Buffer (250 mM Tris-Cl [pH=8], 1.37 M NaCl, 27 mM KCl, 10 mM MgCl2) • b) 0.4 uL *H4K16-Lys BIOMOL peptide (from a 5 mM stock for a final concentration of 20 uM) • c) 1 uL of 100 mM B-NAD (for a final concentration of 1 mM) • d) 2 uL SIRT1 enzyme (at 1.2 ug/ul, total ˜2.5 ug) • e) […] ddH20 2) Mix the reaction by pipetting. […] Place the reaction on ice until ready to proceed with reaction 2 (Centrifuge Briefly). […]

In assay [3] the target is T2, full-length human SIRT1 enzyme (Homo sapiens, UniProt Q96EB6).
T2 construct: 1.1 ug/uL full-length human SIRT1 enzyme
T2 sequence (Q96EB6 1-747): T1 sequence (Q96EB6 1-747)
As to the kind of experiment: Sirtuin assay kit (PNC1-OPT) with hSIRT1 enzyme. On the procedure:
Kit contents are generally stored at −20° C. Modifications or variations in volumes or amounts of components described below are compatible with kits and assays described herein. • 1) Assay Buffer: 2 tubes with 1 mL each of 10× Assay Buffer. Dilute to 1× with ddH20 prior to use. • 2) Non-tagged Peptide Substrate: 1 tube with 140 uL of 5 mM H3K9ac substrate (TARK(ac)STG)) (SEQ ID NO:23). This is a sample substrate only; any substrate may be used in this assay. • 3) β-NAD: a) 1 tube with 450 uL of 10 mM B-NAD, and b) 1 tube with 50 uL of 100 mM B-NAD. In some instances, it is preferable to keep β-NAD in concentrated aliquot form, and dilute it prior to use. • 4) hSIRT1 Enzyme: 1 tube with 400 uL of 1.1 ug/uL full-length human SIRT1 enzyme. • 5) yPNC1 Enzyme: 1 tube with 200 uL of 2 ug/uL yeast PNC1 enzyme • 6) Developing Reagent: 2 vials with 10 mL each 1× Developer (10 mM OPT/10 mM DTT in 100% EtOH). Minimize exposure to light as outlined in the procedure. […]
In some instances, when adding the OPT Developer it is advisable to work in a dark or dimly lit setting. […] Once covered, ambient lighting may be restored. • d) Read the samples. Samples may be transferred to a 96-well plate for reading (do this under dim light). Read the fluorescence on a fluorometer with filters set to excitation ˜420 nm, and emission ˜460 nm. […]

For “Adenosine diphosphate ribose [ADPr, reference compound]”, the “mechanism of SIRT1 inhibition” value at SIRT1 [1] (FIG. 19/20, Vmax and Vmax/K vs [ADPr] for β-NAD and H3K9 peptide) is reported as “competitive inhibitor of β-NAD”.

Consider `Oc1ccc(C=Cc2cc(O)cc(O)c2)cc1` [Resveratrol, reference compound], for which, at SIRT1 [1] (FIG. 10C, 100 uM, 75 uM β-NAD and 25 uM Fleur de Lys substrate), the “effect on SIRT1 deacetylase activity on the Fleur de Lys substrate” value is recorded as “activation of SIRT1 deacetylase activity”.

In the case of `NC(=O)C1=CN([C@@H]2O[C@H](COP(=O)(O)OP(=O)(O)OC[C@H]3O[C@@H](n4cnc5c(N)ncnc54)[C@H](O)[C@@H]3O)[C@@H](O)[C@H]2O)C=CC1` [NAD, β-nicotinamide adenine dinucleotide], the Km on SIRT1 [2] was 80 to 100 µM; at SIRT1 [1] (FIG. 8D, Nicotinamide Assay depicted in FIG. 6 (PNC1-OPT), Fleur de Lys peptide as substrate, read-out: NAD Km value for SIRT1), approximately 200 µM; in assay [3] (kit protocol, Experiment 2 mastermix, read-out: Km of β-NAD (final concentration = Km)), 150 µM; in assay [3] (stated in kit protocol (blank control note), read-out: Km for NAD) it was approximately 160 µM.

For the compound “DBC1: endogenous SIRT1 protein inhibitor”, the “effect of concentration on SIRT1 activity (dose titration)” value with SIRT1 [1] (FIG. 21B, H3K9-L peptide substrate) is “inversely correlates with SIRT1 activity”.
